The values below come from US5922875A, “Aromatic acid diamides with antigastrin activity, a method for their preparation and their pharmaceutical use” (Rotta Research Laboratorium S.p.A., priority 1995, dated 1999).

In one experiment the target is T1, central CCK-B receptor (Cavia porcellus, UniProt H0VZC5).
T1 construct: The cerebral cortices of male albino guinea pigs were therefore used; from tissue; host or cells: cerebral cortex membranes of male albino guinea pigs
T1 sequence (H0VZC5 1-426): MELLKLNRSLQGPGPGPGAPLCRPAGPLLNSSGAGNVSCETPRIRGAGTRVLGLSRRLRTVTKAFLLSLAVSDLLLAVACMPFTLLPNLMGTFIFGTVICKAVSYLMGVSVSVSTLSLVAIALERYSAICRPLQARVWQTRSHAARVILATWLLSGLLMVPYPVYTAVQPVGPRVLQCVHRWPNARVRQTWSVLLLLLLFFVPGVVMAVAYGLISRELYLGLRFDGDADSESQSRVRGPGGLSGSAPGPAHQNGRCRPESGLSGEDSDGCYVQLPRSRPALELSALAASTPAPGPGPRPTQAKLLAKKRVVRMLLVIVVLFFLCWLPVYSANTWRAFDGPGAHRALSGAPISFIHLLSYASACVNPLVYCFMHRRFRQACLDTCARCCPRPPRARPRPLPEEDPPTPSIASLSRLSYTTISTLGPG
Briefly: Inhibition of binding of [3H][N-methyl-N-leucine]CCK-8 to guinea pig cortical membranes (anti-CCK-B in vitro). As for the experimental part: The capacity of the compounds which are the subject of the invention to interact with the central CCK-B receptor was evaluated with the use of [3-H][N-methyl-N-leucine]CCK-8. […] The cerebral cortices of male albino guinea pigs were therefore used, the method given above being followed with slight modifications [Makovec et al.; Bioorganic & Med. Chem. Letters 3 (5)(1993), 861-866] so as to give a membrane content corresponding to about 300 mcg of protein/mL.

The target of experiment [1] is T2, type-B cholecystokynin (CCK-B) or gastrin receptors (Oryctolagus cuniculus, UniProt P46627).
T2 construct: rabbit gastric mucosa cells were prepared by conventional techniques; endogenous in cells; host or cells: freshly isolated rabbit gastric mucosa cells (collagenase/pronase digestion)
T2 sequence (P46627 1-452): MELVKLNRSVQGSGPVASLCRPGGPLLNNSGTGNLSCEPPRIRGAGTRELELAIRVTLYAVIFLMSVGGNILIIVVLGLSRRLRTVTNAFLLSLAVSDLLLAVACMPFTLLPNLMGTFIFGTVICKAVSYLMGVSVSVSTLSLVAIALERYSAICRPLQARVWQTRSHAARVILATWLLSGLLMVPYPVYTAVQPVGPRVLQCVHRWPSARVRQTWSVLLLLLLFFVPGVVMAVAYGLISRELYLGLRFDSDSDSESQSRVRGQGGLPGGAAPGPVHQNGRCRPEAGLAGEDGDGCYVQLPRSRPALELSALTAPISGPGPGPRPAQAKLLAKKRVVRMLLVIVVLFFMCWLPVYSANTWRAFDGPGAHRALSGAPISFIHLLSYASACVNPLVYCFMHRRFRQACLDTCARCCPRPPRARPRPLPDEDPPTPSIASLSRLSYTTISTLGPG
Briefly: Inhibition of the gastrin-induced increase of cytosolic calcium in rabbit gastric mucosa cells. The format is cell-based. As to conditions: cells stimulated with 5×10^-8 gastrin, [Ca2+]i. The source says:
The parietal cells of the gastric mucosa are responsible for the secretion of HCl. They present specific membrane receptors which may be activated by gastrin and which have been defined as type-B cholecystokynin (CCK-B) or gastrin receptors.
Since it has been observed that the activation of the CCK-B receptors by gastrin results in a raising of the levels of cytosolic calcium ions, a technique has been used for measuring the increase in intracellular calcium induced by gastrin in the presence and absence of the compounds which are the subject of the invention, as an index of the anti-gastrin activity of the compounds themselves.
Suspensions (0.8×10^6 /ml) of rabbit gastric mucosa cells were prepared by conventional techniques with the use of collagenase and pronase as digestive enzymes; the estimation of the [Ca^2+ ]i values, basal or achieved after stimulation of the cell system was carried out in accordance with Grynkiewicz et al [J.Biol.Chem 260 (1985), 3440]. In the control samples the cells were stimulated with […] while in the samples in which the effect of the compounds in question was evaluated, the cells were incubated therewith before stimulation with gastrin. The results are expressed as percentage increases in [Ca^2+ ]i with respect to the control value. The anti-gastrin activity of the compounds was expressed as the IC50 value, that is, the concentration (in μmoles/liter) at which the response to the stimulus induced by the gastrin was reduced by 50%. The results thus obtained for several compounds of the invention are given in Table 3 which also gives an index formed from the ratio between the peripheral anti-gastrin activity just described and the displacement activity derived from the study of binding to the cortical receptors of guinea pigs described above.

The test system of experiment [2] is acid secretion induced by pentagastrin. Briefly: In vivo gastric anti-secretory activity in the anaesthetised rat, pentagastrin stimulation. As to conditions: for ED50: iv, read-out: Activity (ID50). How it is done: Gastric secretion was stimulated by pentagastrin and the method of Lai [Gut 5, (1964), 327-341] was used with slight modifications [Makovec et al, J.Med.Chem. 35 (1992), 28-38].
Pentagastrin dissolved in physiological saline was perfused for 120 minutes at a rate of 30 mcg/kg/h. After 60 minutes of perfusion (basal stimulation), the product to be tested was administered intravenously (I.V.) in bolus form, perfusion of the stimulant continuing for the remaining 60 minutes. The activity of the product was evaluated as the percentage reduction in acid secreted after the administration of the product with respect to the basal acidity measured in the first 60 minutes, during which time only pentagastrin was present.
The antagonists tested were administered at different doses in such a way as to enable the ID50 to be calculated, that is, the dose (in mg/kg I.V.) capable of inhibiting the effect of pentagastrin by 50%.

In another experiment the test system is CCK-B receptors. As to conditions: guinea pigs, Knapp et al. 1990; cited from earlier work.
The mark [3] stands for this setting: displacement of [3H][N-methyl-N-leucine]CCK-8, cortical membrane in guinea pigs, read-out: IC50.
The mark [4] stands for this setting: I.V. bolus, rat, pentagastrin perfusion.

Like-named read-outs stand apart in the source and are kept apart here. Some results are limits rather than exact numbers.

In general, IC50 refers to the concentration at which inhibition is half-maximal. For `Cc1ccc(NC(=O)CC(CC(=O)O)c2cccc3ccccc23)c(C(=O)N2CCC3(CCCC3)CC2)c1` (stereo not shown) [Compound 3], the IC50 on central CCK-B receptor (setting [3]) amounted to 0.188 µM; in experiment [1], 0.03 µM.
The corresponding values for `O=C(O)CC(CC(=O)Nc1cc(Cl)ccc1C(=O)N1CCC2(CCCC2)CC1)c1cccc2ccccc12` (stereo not shown) [Compound 6] are 1.24 µM and 0.14 µM.
As for `Cc1cc(C)c(NC(=O)CC(CC(=O)O)c2cccc(Cl)c2)c(C(=O)N2CCC3(CCCC3)CC2)c1` (stereo not shown) [Compound 16], the IC50 was determined as 0.395 µM at central CCK-B receptor (setting [3]) and 0.082 µM in experiment [1].
Turning to `O=C(O)CCC(NC(=O)c1cccc2ccccc12)C(=O)Nc1cccc(C(=O)N2CCC3(CCCC3)CC2)c1` (stereo not shown) [Compound 12], on central CCK-B receptor (setting [3]), the IC50 is greater than 1 µM. Also, the ED50 in experiment [2] (setting [4]) was greater than 10 mg/kg.
As to `COc1cc(NC(=O)CC(CC(=O)O)c2cccc3ccccc23)c(C(=O)N2CCC3(CCCC3)CC2)cc1OC` (stereo not shown) [Compound 10], the IC50 at central CCK-B receptor (setting [3]) was 0.82 µM; in experiment [1] it was greater than 0.3 µM.
With `CN(C(=O)CC(CC(=O)O)c1cccc2ccccc12)c1ccccc1C(=O)N1CCC2(CCCC2)CC1` (stereo not shown) [Compound 17], on central CCK-B receptor (setting [3]), the IC50 was greater than 1 µM.
Consider `O=C(O)CC(CC(=O)Nc1cc2ccccc2cc1C(=O)N1CCC2(CCCCC2)CC1)c1cccc2ccccc12` (stereo not shown) [Compound 18], for which the IC50 was 0.661 µM on central CCK-B receptor (setting [3]) and 0.105 µM in experiment [1].
Regarding `O=C(O)CC(CC(=O)Nc1c(Cl)cccc1C(=O)N1CCC2(CCCC2)CC1)c1cccc2ccccc12` (stereo not shown) [Compound 5], in experiment [2] (setting [4]), the ED50 was determined as 2.6 mg/kg.
Regarding `CN/C(=N/CCSCc1nc[nH]c1C)NC#N` [Cimetidine, cimetidine, reference compound], the ED50 in experiment [2] (setting [4]) amounted to 2.5 mg/kg.
Regarding `CSCC[C@H](NC(=O)[C@H](Cc1c[nH]c2ccccc12)NC(=O)CCNC(=O)OC(C)(C)C)C(=O)N[C@@H](CC(=O)O)C(=O)N[C@@H](Cc1ccccc1)C(N)=O` [Pentagastrin, reference compound], the half-inhibitory concentration (IC50) on central CCK-B receptor (setting [3]) worked out at 0.003 µM.
For the compound [3-H][N-methyl-N-leucine]CCK-8, the “affinity times higher for the receptors of the cortex (CCK-B) than those of the pancreas (CCK-A)” value with CCK-B receptors was “about 4000 times”.
`O=C(O)CC(CC(=O)Nc1cc2ccccc2cc1C(=O)N1CCC2(CC1)OCCO2)c1cccc2ccccc12` (stereo not shown) [Compound 14] displayed an IC50 at central CCK-B receptor of 1.08 µM. Besides, in experiment [2] (Rattus norvegicus), the ED50 was determined as 7.9 mg/kg.
Turning to `O=C(O)CC[C@@H](NC(=O)c1cc(Cl)cc(Cl)c1)C(=O)N1CCC2(CCCC2)CC1` [CR 2194, reference compound], the ED50 in experiment [2] (setting [4]) was found to be 11 mg/kg.
In the case of `O=C(O)CC(CC(=O)Nc1cc2ccccc2cc1C(=O)N1CCC2(CCCC2)CC1)c1cccc2ccccc12` (racemic) [Compound 13, 3-(DL)-(1-naphthyl)-5-[2'-carbamoyl(8-azaspiro[4.5]dec-8-yl)]-3'-naphthylamino]-5-oxopentanoic acid], on central CCK-B receptor (setting [3]), the IC50 amounted to 0.225 µM. Further, in experiment [2] (ID50 comparison, rat I.V.), the “times more powerful than CR 2194” value is reported as 10-50 times and the “times more powerful than cimetidine” value is on record as 2-10 times. Also, the ED50 in experiment [2] (setting [4]) was found to be 1 mg/kg. Moreover, in experiment [1], the half-inhibitory concentration (IC50) amounted to 0.037 µM.
